Assay results from ChEMBL document CHEMBL3351764, “Design, synthesis and biological activity of flavonoid derivatives as selective agonists for neuromedin U 2 receptor” (Bioorg Med Chem, 2014).
Activity calls are given as the source filed them.

What was measured:
[1] = molecular target: T1, Adenosine receptor A3 (Homo sapiens) (UniProt P0DMS8); assay: Agonist activity at human A3 receptor at 100 uM to 5 mM
T1 sequence (whole entry): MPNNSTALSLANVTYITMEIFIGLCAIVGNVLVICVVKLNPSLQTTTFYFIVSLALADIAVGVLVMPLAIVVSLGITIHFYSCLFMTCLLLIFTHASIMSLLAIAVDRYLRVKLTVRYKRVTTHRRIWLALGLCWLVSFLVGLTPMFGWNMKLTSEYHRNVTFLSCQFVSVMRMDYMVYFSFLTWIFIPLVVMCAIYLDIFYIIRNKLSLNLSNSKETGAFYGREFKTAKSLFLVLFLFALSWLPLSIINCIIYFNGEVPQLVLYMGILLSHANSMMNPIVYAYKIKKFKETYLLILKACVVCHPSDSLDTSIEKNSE

[2] = molecular target: T2, Orexin receptor type 2 (Homo sapiens) (UniProt O43614); assay: Agonist activity at human orexin 2 receptor at 100 uM to 5 mM
T2 sequence (whole entry): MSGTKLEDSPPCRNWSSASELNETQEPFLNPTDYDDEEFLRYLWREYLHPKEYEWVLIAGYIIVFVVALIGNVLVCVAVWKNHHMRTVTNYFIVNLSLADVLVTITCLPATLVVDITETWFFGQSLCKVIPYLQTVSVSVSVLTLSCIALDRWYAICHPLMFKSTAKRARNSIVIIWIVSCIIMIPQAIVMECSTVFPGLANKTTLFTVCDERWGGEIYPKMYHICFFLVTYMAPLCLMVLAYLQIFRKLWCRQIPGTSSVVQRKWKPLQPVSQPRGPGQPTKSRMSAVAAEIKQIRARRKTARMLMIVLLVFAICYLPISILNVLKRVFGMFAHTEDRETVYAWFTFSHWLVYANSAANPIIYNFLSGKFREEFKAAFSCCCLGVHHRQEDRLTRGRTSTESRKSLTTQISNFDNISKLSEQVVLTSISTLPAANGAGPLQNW

[3] = molecular target: Adenosine receptor A2a (Homo sapiens) (UniProt P29274); assay: Agonist activity at human A2a receptor at 100 uM to 5 mM
[4] = molecular target: T3, Neuropeptide Y receptor type 5 (Homo sapiens) (UniProt Q15761); assay: Agonist activity at human NPY5 receptor at 100 uM to 5 mM
T3 sequence (whole entry): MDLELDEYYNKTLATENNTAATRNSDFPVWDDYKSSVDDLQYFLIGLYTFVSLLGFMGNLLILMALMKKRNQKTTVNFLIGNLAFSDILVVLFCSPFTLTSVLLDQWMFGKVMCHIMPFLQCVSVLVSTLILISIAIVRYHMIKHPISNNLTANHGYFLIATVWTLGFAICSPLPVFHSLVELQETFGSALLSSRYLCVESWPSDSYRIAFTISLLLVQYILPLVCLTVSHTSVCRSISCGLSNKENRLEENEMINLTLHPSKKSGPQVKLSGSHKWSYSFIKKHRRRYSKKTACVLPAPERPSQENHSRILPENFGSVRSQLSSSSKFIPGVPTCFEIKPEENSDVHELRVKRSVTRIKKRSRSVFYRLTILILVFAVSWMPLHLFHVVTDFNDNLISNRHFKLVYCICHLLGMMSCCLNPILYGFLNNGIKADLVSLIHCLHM

[5] = molecular target: D(1B) dopamine receptor (Homo sapiens) (UniProt P21918); assay: Agonist activity at human D5 receptor at 100 uM to 5 mM
[6] = molecular target: Adrenocorticotropic hormone receptor (Mus musculus) (UniProt Q64326); assay: Agonist activity at mouse MC2 receptor at 100 uM to 5 mM
[7] = molecular target: Melanocortin receptor 3 (Homo sapiens) (UniProt P41968); assay: Agonist activity at human MC3 receptor at 100 uM to 5 mM
[8] = molecular target: Melanocortin receptor 3 (Mus musculus) (UniProt P33033); assay: Agonist activity at mouse MC3 receptor at 100 uM to 5 mM
[9] = molecular target: T4, 5-hydroxytryptamine receptor 2C (Homo sapiens) (UniProt P28335); assay: Agonist activity at human 5HT2C receptor at 100 uM to 5 mM
T4 sequence (whole entry): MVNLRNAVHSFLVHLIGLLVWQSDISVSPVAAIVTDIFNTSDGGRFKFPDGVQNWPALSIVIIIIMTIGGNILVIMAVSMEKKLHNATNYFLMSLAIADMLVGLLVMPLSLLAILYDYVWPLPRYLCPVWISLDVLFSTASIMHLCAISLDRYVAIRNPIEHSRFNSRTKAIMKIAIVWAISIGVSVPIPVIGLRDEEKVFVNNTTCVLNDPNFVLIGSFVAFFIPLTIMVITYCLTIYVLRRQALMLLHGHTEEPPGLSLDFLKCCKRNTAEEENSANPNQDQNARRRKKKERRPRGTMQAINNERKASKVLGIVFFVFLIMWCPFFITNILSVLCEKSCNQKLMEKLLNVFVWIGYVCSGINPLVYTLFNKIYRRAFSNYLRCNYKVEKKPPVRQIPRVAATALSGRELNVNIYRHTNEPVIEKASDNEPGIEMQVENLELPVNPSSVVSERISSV

[10] = molecular target: Glucagon receptor (Homo sapiens) (UniProt P47871); assay: Agonist activity at human Glu receptor at 100 uM to 5 mM
[11] = molecular target: Melanocortin receptor 4 (Mus musculus) (UniProt P56450); assay: Agonist activity at mouse MC4 receptor at 100 uM to 5 mM
[12] = molecular target: Melanin-concentrating hormone receptor 1 (Homo sapiens) (UniProt Q99705); assay: Agonist activity at human MCH1 receptor at 100 uM to 5 mM

Measured: Activity

Sequence of D(1B) dopamine receptor (Homo sapiens) (P21918 whole entry): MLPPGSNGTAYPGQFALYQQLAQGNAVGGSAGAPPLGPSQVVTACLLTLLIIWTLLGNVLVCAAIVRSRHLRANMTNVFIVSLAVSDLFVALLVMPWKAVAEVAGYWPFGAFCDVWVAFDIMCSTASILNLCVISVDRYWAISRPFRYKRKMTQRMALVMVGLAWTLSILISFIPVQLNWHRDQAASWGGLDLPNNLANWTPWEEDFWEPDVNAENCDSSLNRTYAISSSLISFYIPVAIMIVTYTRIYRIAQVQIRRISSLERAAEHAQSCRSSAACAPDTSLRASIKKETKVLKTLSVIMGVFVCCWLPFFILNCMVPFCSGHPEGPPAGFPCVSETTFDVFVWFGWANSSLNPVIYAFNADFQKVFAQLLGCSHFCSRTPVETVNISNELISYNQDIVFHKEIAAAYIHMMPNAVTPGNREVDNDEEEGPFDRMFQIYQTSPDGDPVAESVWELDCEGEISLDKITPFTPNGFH
Sequence of Melanocortin receptor 4 (Mus musculus) (P56450 whole entry): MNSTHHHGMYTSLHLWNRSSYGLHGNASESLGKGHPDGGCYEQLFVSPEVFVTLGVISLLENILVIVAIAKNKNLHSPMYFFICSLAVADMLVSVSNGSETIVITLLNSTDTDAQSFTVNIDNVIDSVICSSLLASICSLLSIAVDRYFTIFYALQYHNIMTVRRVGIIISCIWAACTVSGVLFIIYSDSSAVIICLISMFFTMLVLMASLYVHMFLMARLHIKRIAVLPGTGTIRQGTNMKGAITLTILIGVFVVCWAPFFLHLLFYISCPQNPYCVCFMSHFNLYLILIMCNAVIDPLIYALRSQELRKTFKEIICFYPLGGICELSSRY
Sequence of Adrenocorticotropic hormone receptor (Mus musculus) (Q64326 whole entry): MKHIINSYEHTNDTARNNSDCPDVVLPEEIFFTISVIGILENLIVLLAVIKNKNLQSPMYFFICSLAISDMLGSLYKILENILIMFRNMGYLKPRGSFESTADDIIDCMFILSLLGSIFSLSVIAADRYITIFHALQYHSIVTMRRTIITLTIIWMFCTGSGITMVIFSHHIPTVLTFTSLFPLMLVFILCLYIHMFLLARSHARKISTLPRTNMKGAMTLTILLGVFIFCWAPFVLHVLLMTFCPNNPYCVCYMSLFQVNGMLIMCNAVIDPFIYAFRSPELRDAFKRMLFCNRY
Sequence of Adenosine receptor A2a (Homo sapiens) (P29274 whole entry): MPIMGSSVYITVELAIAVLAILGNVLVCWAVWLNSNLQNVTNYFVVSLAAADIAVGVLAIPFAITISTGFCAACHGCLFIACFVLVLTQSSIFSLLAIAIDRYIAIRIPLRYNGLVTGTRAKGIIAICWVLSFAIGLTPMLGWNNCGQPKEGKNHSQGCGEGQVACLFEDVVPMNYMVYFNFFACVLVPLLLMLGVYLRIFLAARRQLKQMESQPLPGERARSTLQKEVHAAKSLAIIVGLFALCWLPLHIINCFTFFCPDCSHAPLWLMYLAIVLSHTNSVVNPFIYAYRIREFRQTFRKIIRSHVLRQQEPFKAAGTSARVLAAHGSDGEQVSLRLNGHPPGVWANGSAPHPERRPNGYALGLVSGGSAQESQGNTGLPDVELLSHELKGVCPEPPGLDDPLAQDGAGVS
Sequence of Melanocortin receptor 3 (Homo sapiens) (P41968 whole entry): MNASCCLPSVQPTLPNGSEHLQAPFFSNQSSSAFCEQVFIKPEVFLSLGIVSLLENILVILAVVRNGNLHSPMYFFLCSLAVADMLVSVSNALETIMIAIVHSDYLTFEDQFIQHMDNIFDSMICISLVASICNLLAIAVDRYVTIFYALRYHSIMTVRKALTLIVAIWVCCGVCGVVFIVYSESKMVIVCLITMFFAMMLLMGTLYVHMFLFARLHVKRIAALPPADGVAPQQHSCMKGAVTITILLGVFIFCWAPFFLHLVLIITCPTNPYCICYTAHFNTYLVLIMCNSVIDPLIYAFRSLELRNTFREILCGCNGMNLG
Sequence of Melanocortin receptor 3 (Mus musculus) (P33033 whole entry): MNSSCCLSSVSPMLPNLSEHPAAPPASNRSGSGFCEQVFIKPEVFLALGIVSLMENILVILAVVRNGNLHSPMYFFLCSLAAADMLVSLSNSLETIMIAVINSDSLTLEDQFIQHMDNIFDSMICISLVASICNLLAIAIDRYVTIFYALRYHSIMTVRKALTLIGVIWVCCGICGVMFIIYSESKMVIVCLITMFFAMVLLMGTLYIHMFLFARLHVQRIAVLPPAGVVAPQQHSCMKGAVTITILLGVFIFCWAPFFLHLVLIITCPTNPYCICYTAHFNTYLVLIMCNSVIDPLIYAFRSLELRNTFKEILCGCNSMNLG
Sequence of Melanin-concentrating hormone receptor 1 (Homo sapiens) (Q99705 whole entry): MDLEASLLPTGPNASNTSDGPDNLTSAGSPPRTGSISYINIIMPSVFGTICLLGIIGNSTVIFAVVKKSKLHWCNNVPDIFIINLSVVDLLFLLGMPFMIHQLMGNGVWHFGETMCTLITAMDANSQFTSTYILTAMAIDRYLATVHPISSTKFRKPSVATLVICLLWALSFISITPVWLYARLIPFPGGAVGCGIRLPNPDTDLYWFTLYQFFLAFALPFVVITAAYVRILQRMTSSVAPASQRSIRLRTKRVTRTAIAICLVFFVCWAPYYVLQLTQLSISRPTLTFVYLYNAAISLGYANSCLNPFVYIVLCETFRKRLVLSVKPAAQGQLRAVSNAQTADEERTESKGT
Sequence of Glucagon receptor (Homo sapiens) (P47871 whole entry): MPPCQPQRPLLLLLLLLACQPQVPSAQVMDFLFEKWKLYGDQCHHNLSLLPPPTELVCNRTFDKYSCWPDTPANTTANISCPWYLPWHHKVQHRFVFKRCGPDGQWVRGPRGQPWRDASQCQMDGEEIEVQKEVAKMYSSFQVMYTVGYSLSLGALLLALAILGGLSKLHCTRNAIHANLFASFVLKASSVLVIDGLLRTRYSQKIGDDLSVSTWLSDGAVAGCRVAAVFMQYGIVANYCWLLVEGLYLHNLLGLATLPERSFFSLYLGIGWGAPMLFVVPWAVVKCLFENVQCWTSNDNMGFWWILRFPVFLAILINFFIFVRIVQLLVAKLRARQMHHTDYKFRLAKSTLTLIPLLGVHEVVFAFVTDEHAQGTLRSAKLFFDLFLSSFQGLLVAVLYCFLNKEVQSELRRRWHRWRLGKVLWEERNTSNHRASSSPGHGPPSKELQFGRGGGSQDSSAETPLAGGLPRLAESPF

COc1ccc(-c2cc(=O)c3ccccc3o2)cc1O
inactive: all assays above

O=c1c(OCCO)c(-c2cc(Br)ccc2F)oc2ccccc12
inactive: all assays above

CCOC(=O)COc1c(-c2cc(Br)ccc2F)oc2ccccc2c1=O
inactive: all assays above

COc1ccc(C2C=Cc3ccccc3O2)cc1 (racemic)
inactive: all assays above

O=c1c(O)c(-c2ccc(O)cc2)oc2ccccc12
inactive: all assays above

O=c1cc(-c2ccccc2F)oc2ccccc12
inactive: all assays above

O=c1c(O)c(-c2cccc(Cl)c2)oc2ccccc12
inactive: all assays above

O=c1c(O)c(-c2cccc(Br)c2)oc2ccccc12
inactive: all assays above

COc1ccc(-c2oc3ccccc3c(=O)c2O)cc1O
inactive: all assays above

O=c1c(O)c(-c2cc(Br)ccc2F)oc2ccccc12
inactive: all assays above

COc1c(-c2cc(Br)ccc2F)oc2ccccc2c1=O
inactive: all assays above
